In PubChem BioAssay AID1963431 (Molecular Pharmacology Branch, DTP, NCI, 2024):

Test system: Rh18 complex spheroid viability, percent test/control
Experiment: Anticancer human tumor Rh18 cell line growth inhibition [Asc];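 also: spheroids exposed to compound for 7 days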;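 as to viability, T/C: 100% = DMSO vehicle control wells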
Conditions: for IC50: curve of first compound; for viability, T/C: stronger effect = lower value
Method in brief: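 Complex solid-tumor spheroids incorporating human endothelial and mesenchymal stem cells received single agents or combinations over half-log dilution ranges anchored to clinical Cmax.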

In the case of `NC1CCC(NC2CC2c2ccccc2)CC1` (stereo not given) + Cc1c(S(C)(=O)=O)c(-c2cc(F)cc(N3CCN(c4ccc(NS(=O)(=O)c5ccc(NC(CCN6CCC(C(=O)OCCCP(=O)(O)O)CC6)CSc6ccccc6)c(S(=O)(=O)C(F)(F)F)c5)cc4)CC3)c2)c(-c2ccc(Cl)cc2)n1C(C)C, the IC50 (second compound 0.1 µM) is reported as under 316 pM, the IC50 (second compound 0.316 µM) is reported as under 316 pM and the IC50 (second compound 1 µM) is reported as under 316 pM. It also gave an IC50 (second compound 3.16 µM) of under 316 pM, an IC50 (second compound 10 µM) of under 316 pM and a viability, T/C (second compound 0.1 µM, first compound 0.000316 µM) of 13.1%. For the same compound, the viability, T/C (second compound 0.1 µM, first compound 0.001 µM) was 13.2%, the viability, T/C (second compound 0.1 µM, first compound 0.00316 µM) was 10.9% and the viability, T/C (second compound 0.1 µM, first compound 0.01 µM) was 10.2%. For the same compound, the viability, T/C (second compound 0.1 µM, first compound 0.0316 µM) was 12.5%, the viability, T/C (second compound 0.1 µM, first compound 0.1 µM) was 11.2% and the viability, T/C (second compound 0.316 µM, first compound 0.000316 µM) was 10.4%. The viability, T/C (second compound 0.316 µM, first compound 0.001 µM) was 9.84%, the viability, T/C (second compound 0.316 µM, first compound 0.00316 µM) was 8.02% and the viability, T/C (second compound 0.316 µM, first compound 0.01 µM) was 8.28%. It also gave a viability, T/C (second compound 0.316 µM, first compound 0.0316 µM) of 8.54%, a viability, T/C (second compound 0.316 µM, first compound 0.1 µM) of 8.22% and a viability, T/C (second compound 1 µM, first compound 0.000316 µM) of 6.65%. The viability, T/C (second compound 1 µM, first compound 0.001 µM) was 6.65%, the viability, T/C (second compound 1 µM, first compound 0.00316 µM) was 6.88% and the viability, T/C (second compound 1 µM, first compound 0.01 µM) was 4.85%. For the same compound, the viability, T/C (second compound 1 µM, first compound 0.0316 µM) was 5.16%, the viability, T/C (second compound 1 µM, first compound 0.1 µM) was 5.77% and the viability, T/C (second compound 3.16 µM, first compound 0.000316 µM) was 4.21%. The viability, T/C (second compound 3.16 µM, first compound 0.001 µM) was 3.65%, the viability, T/C (second compound 3.16 µM, first compound 0.00316 µM) was 3.75% and the viability, T/C (second compound 3.16 µM, first compound 0.01 µM) was 3.61%. It also gave a viability, T/C (second compound 3.16 µM, first compound 0.0316 µM) of 3.49%, a viability, T/C (second compound 3.16 µM, first compound 0.1 µM) of 4.43% and a viability, T/C (second compound 10 µM, first compound 0.000316 µM) of 2.72%. The viability, T/C (second compound 10 µM, first compound 0.001 µM) was 3.65%, the viability, T/C (second compound 10 µM, first compound 0.00316 µM) was 3% and the viability, T/C (second compound 10 µM, first compound 0.01 µM) was 2.12%. For the same compound, the viability, T/C (second compound 10 µM, first compound 0.0316 µM) was 2.21% and the viability, T/C (second compound 10 µM, first compound 0.1 µM) was 2.07%.
